Publication PMC6208284 (Phytotherapy Research, 2018)
Like-named read-outs stand apart in the source and are kept apart here.

What was measured:
[1] = system: Leishmania tarentolae promastigotes (LtP); experiment: Oxygen consumption of LtP, Clark-type electrode (immediate effect); format: cell-based; conditions: 10-200 μM tested
Procedure: Direct inhibitors of mitochondrial ETC instantaneously influence mitochondrial oxygen consumption. To assay the effect of EO compounds on oxygen consumption of LtP, a Clark‐type oxygen electrode (Hansatech, Germany) and software MCREC were used. LtP at approximately 10^8 cells/ml in YEM (25 °C) were added and treated with increasing concentrations of EO compounds between 10 and 200 μM and for EO 5.6–89.6 μg/ml. Each concentration was assayed in quadruplicates, and the results were expressed as percentage of oxygen consumption in comparison with the untreated control LtP. The highest concentration of the vehicle (1% DMSO) caused only 2% inhibition. The uncoupling effect in short‐term and long‐term (0, 6, and 24 hr) incubations with Asc (200 μM) was studied in Oligo‐inhibited (5 μM) and uncoupler‐stimulated (0.5 μM CCCP) LtP in Schneider's medium supplemented with 6 μM hemin. Four replicates were performed for each concentration.

[2] = target: succinate:ubiquinone oxidoreductase (complex II), LtP‐Mit (Leishmania tarentolae, UniProt A0A640KIH4+A0A640KIH8); experiment: Succinate:ubiquinone oxidoreductase (complex II) activity in LtP‐Mit, DCPIP; format: biochemical; conditions: for IC50: read-out: IC50 Complex II LtP‐Mit
Procedure: NADH:ubiquinone oxidoreductase (complex I) and succinate:ubiquinone oxidoreductase (complex II) activities were determined in 96 well‐plates using DCPIP as the electron acceptor. In each well, 200 μl of premix containing buffer (250 mM sucrose, 20 mM triethanolamine, and 1 mM EDTA, pH 7.4), DCPIP (60 μM), BSA (3.5 mg/ml for complex I and 1 mg/ml for complex II), idebenone (50 μM), and LtP‐Mit (complex I 0.17 μg/ml protein and complex II: 51 μg/ml protein) or BH‐SMP (complexes I and II: 8 μg/ml protein) were added. In addition, in the first wells, 97 μl of premix and 3 μl of EO compounds were added. Then six serial 1:3 dilutions were carried out transferring 100 μl in each step. The reaction was started by adding 50 μl of start‐mix per well, giving final concentrations of KCN (1 mM), for complex I:NADH (300 μM) or complex II:succinate (4 mM). After start of the reaction, images of the plates were recorded with a Canon EOS 300D camera (PLReader software, red–green channel) each 10 min for LtP‐Mit and 3 min for BH‐SMP (20 absorbance measurements). For each EO compound, percentage of inhibition was obtained with respect to controls (set to 100%) treated with maximum volume of vehicle (DMSO) introduced by test compound stocks.

[3] = target: ubiquinol:cytochrome c oxidoreductase (complex III), LtP‐Mit (Leishmania tarentolae, UniProt A0A640KA58+A0A640KYQ2+P14548); experiment: dUQH2:cyt c3+ oxidoreductase (complex III) activity in LtP‐Mit; format: biochemical
Procedure: (§1) To measure the ubiquinol:cyt c ^3+ oxidoreductase (complex III) activity, the reduction of 100 μM cyt c ^3+ at 550 nm using 540 nm as reference was monitored in the presence of the artificial substrate decylubiquinol (dUQH2, 75 μM), which was prepared from dUQ by reduction (Müllebner et al., 2010). The dUQH2:cyt c ^3+ oxidoreductase activities of 40 μg protein/ml of LtP‐Mit or 3.2 μg protein/ml of BH‐SMP were measured in 1 ml of buffer containing 250 mM sucrose, 50 mM KH2PO4, 0.2 mM EDTA (pH 7.2), 2 mM KCN, and 4 mM NaN3. Respective EO compounds were added 50 s after starting the time scan, and the reaction was started after 100 s with dUQH2 and was monitored for additional 150 s. The activity of noninhibited dUQH2:cyt c ^3+ oxidoreductase activity was measured in the presence of the vehicle for the respective inhibitor (DMSO). All inhibitor concentrations were tested in triplicate. The reduction rates for cyt c ^3+ were calculated from the time trace of the absorption difference at 550 − 540 nm (ε550–540 nm = 19 mmol^−1 L cm^−1). Reduction rates in the presence of DMSO (maximum amount that was introduced by test compound stocks) were set to 100%, and the remaining activities in the presence of EO compounds were expressed in %. Three replicates were measured for each concentration.

[4] = target: T1, ubiquinol:cytochrome c oxidoreductase (complex III), BH‐SMP (Bos taurus, UniProt P00125+P00157+P13272); experiment: dUQH2:cyt c3+ oxidoreductase (complex III) activity in BH‐SMP; format: biochemical, bovine
T1 construct: from tissue; host or cells: bovine heart submitochondrial particles (BH-SMP)
Procedure: as §1

[5] = target: T2, cytochrome bc 1 complex purified from Saccharomyces cerevisiae (Saccharomyces cerevisiae, UniProt P00163+P07143+P08067); experiment: dUQH2:cyt c3+ oxidoreductase activity of isolated ScY‐bc 1; format: biochemical
T2 construct: endogenous in cells; host or cells: Native complex purified in house from yeast submitochondrial particles (Triton X-100, hydroxyapatite)
Procedure: (§2) Cytochrome bc 1 complex was obtained from ScY‐SMP and BH‐SMP following published methodology (Geier, Schägger, Brandt, Colson, & von Jagow, 1992) with minor modifications as described below. SMP were resuspended in 1.1% Triton X‐100 and […] phenylmethylsulfonyl fluoride, pH 7.2, and centrifuged for 1 hr at 100,000 g. The bc 1 complex in the sediment was solubilized with 2.2% Triton X‐100, 600 mM NaCl, 10 mM KH2PO4, and 10 mM EDTA, pH 7.2. After centrifugation at 100,000 g for 1 hr, the supernatant was mixed with 50 ml of hydroxyapatite, equilibrated with 0.5% Triton X‐100, 250 mM NaCl, and 100 mM NaHPO4, pH 7.2. After washing the hydroxyapatite with 50 ml of equilibration buffer ([…], 100 mM NaHPO4, and 250 mM NaCl), the bc 1 complexes from ScY‐SMP and BH‐SMP (ScY‐bc 1 and BH‐bc 1, respectively) were eluted from hydroxyapatite with 250 mM KH2PO4 and 0.25% Triton X‐100, pH 7.2, and stored in liquid nitrogen.
as §1, with “Reduction rates in the presence of DMSO (maximum amount that was introduced by test compound stocks) were set to 100%, and the remaining activities in the presence of EO compounds were expressed in %.” left out, “concentration. […]” for “concentration.”

[6] = target: T3, cytochrome bc 1 complex purified from Bos taurus (Bos taurus, UniProt P00125+P00157+P13272); experiment: dUQH2:cyt c3+ oxidoreductase activity of isolated BH‐bc 1; format: biochemical
T3 construct: from tissue; host or cells: Native complex purified in house from bovine heart submitochondrial particles (Triton X-100, hydroxyapatite)
Procedure: as §2
as §1, with “Reduction rates in the presence of DMSO (maximum amount that was introduced by test compound stocks) were set to 100%, and the remaining activities in the presence of EO compounds were expressed in %.” left out, “concentration. […]” for “concentration.”

[7] = system: Leishmania amazonensis promastigotes (LaP); design: method as in Monzote, Garcia, et al., 2014; conditions: ref Monzote, Garcia, et al., 2014, cited from earlier work; for IC50: previous study, read-out: IC50 against LaP
[8] = mean ± SD, three experiments, read-out: IC50 Complex III LtP‐Mit
[9] = read-out: IC50 Complex III BH‐SMP
[10] = immediate inhibition, five experiments, read-out: IC50 ± SD ScY‐bc 1
[11] = immediate inhibition, five experiments, read-out: IC50 ± SD BH‐bc 1

Sequence of succinate:ubiquinone oxidoreductase (complex II), LtP‐Mit (A0A640KIH4 entry or part of it): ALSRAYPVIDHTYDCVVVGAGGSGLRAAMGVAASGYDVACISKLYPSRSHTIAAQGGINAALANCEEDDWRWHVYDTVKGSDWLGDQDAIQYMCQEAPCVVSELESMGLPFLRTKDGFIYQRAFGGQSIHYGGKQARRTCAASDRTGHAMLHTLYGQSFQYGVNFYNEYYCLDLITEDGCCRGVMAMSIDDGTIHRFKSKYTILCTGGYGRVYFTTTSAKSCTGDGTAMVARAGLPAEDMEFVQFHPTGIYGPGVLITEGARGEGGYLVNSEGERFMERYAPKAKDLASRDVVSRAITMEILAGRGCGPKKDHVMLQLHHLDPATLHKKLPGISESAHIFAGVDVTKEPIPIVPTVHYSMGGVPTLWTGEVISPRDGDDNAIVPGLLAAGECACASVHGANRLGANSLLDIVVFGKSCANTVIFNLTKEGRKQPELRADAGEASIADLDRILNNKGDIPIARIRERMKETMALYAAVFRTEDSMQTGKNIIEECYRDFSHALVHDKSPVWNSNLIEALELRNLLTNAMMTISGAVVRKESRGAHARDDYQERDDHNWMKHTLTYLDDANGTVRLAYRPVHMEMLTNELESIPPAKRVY
Sequence of succinate:ubiquinone oxidoreductase (complex II), LtP‐Mit (A0A640KIH8 entry or part of it): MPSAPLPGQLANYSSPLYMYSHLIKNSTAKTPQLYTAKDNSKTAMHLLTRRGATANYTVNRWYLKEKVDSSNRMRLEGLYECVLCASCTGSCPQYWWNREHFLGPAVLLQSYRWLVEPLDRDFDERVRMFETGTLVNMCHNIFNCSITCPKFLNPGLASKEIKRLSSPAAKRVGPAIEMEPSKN
Sequence of ubiquinol:cytochrome c oxidoreductase (complex III), LtP‐Mit (P14548 whole entry): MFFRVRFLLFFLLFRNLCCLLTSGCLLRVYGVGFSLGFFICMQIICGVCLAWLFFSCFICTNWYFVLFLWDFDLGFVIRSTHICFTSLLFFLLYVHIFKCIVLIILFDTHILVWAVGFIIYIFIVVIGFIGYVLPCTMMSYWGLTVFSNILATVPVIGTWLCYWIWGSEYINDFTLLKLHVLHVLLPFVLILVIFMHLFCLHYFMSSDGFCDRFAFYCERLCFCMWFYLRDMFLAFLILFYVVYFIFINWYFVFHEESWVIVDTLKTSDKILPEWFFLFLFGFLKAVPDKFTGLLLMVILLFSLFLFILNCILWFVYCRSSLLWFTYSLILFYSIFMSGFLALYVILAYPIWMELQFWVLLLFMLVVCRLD
Sequence of ubiquinol:cytochrome c oxidoreductase (complex III), LtP‐Mit (A0A640KA58 entry or part of it): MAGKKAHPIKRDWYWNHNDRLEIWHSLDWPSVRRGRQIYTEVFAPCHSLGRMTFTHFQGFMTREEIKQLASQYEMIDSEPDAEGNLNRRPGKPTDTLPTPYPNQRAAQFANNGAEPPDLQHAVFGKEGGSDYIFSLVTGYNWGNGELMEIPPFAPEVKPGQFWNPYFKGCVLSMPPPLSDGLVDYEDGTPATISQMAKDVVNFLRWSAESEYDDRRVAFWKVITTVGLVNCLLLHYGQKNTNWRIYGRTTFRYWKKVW
Sequence of ubiquinol:cytochrome c oxidoreductase (complex III), LtP‐Mit (A0A640KYQ2 entry or part of it): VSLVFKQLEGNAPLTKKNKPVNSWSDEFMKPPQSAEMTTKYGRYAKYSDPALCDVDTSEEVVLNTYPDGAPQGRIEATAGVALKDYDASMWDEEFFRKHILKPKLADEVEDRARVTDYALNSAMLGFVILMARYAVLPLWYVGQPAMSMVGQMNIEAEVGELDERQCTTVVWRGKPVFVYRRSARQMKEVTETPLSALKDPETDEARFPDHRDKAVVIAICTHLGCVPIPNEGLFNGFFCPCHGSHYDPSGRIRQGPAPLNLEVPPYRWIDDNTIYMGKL

SMILES | Inhibition of LtP oxygen consumption (in words) [1] | IC50 ([1]; Leishmania tarentolae, read-out: IC50, inhibition of LtP oxygen consumption) [µM] | % of inhibition at highest concentration tested, Complex II LtP‐Mit [2] [%] | IC50 [2] [µM] | IC50 [3, 8] [µM] | IC50 [4, 9] [µM] | IC50 [5, 10] [µM] | IC50 [6, 11] [µM] | IC50 [7] [µM] | % of inhibition at highest concentration tested, Complex III BH‐SMP [4] [%] | IC50 [3] [µM] | IC50 [4] [µM] | IC50 [5] [µM] | IC50 [6] [µM] | IC50 values for L. amazonensis in the presence of iron chelators ([7]; with iron chelators)
C=C1CC[C@H]2O[C@]2(C)CC[C@@H]2[C@@H]1CC2(C)C [Caryo, caryophyllene oxide] | strongly inhibited LtP oxygen consumption | 98 ± 2 | 12.3 | > 100 | 54.8 ± 4 | > 100 | 179 ± 1 | 197 ± 1 | 22.2 ± 10.4 | – | – | – | – | – | –
Cc1ccc(C(C)C)cc1O [Car, carvacrol] | failed to strongly inhibit oxygen consumption | – | 8.8 | > 100 | 150 ± 2.3 | > 100 | 941 ± 41 | 421 ± 4 | 101 ± 30 | 22.8 | – | – | – | – | –
CC(C)C12C=CC(C)(CC1)OO2 (stereo not shown) [Asc, ascaridole] | failed to strongly inhibit oxygen consumption | – | 17.6 | > 100 | – | – | – | – | 0.6 ± 0.06 | 17.7 | 131 ± 3.5 | > 100 | 675 ± 6 | 381 ± 9 | strongly increased
